Assay results reported in patent EP0115400A1, “Triazole antifungal agents” (Pfizer Limited, priority 1983, dated 1984).

Tested on: Candida albicans
Experiment: in vivo oral protection of mice inoculated with a lethal infection of Candida albicans
Details: oral administration to mice with lethal Candida albicans infection, survival of treated group after death of untreated group, 48 hours observation; for ED50: read-out: PD50 (dose level providing 50% protection)
Method: The in vivo evaluation of the compounds can be carried out at a series of dose levels by intraperitoneal or intravenous injection or by oral administration, to mice which are inoculated with a strain of Candida albicans. Activity is based on the survival of a treated group of mice after the death of an untreated group of mice following 48 hours observation. The dose level at which the compound provides 50X protection against the lethal effect of the infection is noted.
The compounds of the Examples were tested in vivo by oral administration to mice inoculated with a lethal infection of Candida albicans according to the procedures described herein. The dose levels providing 50% protection (PD50) were as follows: […]

| Structure (SMILES) | ED50 | PD50 (dose level providing 50% protection) |
| --- | --- | --- |
| Cn1nnnc1CC(O)(Cn1cncn1)c1ccc(Cl)cc1Cl (stereo not drawn) [Example 1, 2-(2,4-Dichlorophenyl)-1-(1-methyltetrazol-5-yl)-3-(lH-1,2,4-triazol-l-yl)propan-2-ol] | 0.1 mg/kg |  |
| OC(Cc1ncn[nH]1)(Cn1cncn1)c1ccc(Cl)cc1Cl (stereo not drawn) [Example 2, 2-(2,4-Dichlorophenyl)-1-(1,2,4-triazol-3-yl)-3-(1H-1,2,4-triazol-1-yl)propan-2-ol, dioxalate] | 2.2 mg/kg |  |
| Cn1ncnc1CC(O)(Cn1cncn1)c1ccc(Cl)cc1Cl (stereo not drawn) [Example 3 (2), 2-(2,4-Dichlorophenyl)-1-(2-methyl-1,2,4-triazol-3-yl)-3-(1H-1-2,4-triazol-1-yl)propan-2-ol] |  | 20 mg/kg/p.o. |
| Cn1cnnc1CC(O)(Cn1cncn1)c1ccc(Cl)cc1Cl (stereo not drawn) [Example 3 (3), 2-(2,4-Dichlorophenyl)-1-(4-methyl-1,2,4-triazol-3-yl)-3-(1H-1,2,4-triazol-l-yl)propan-2-ol] |  | 3.5 mg/kg/p.o. |
| OC(Cc1ncc[nH]1)(Cn1cncn1)c1ccc(Cl)cc1Cl (stereo not drawn) [Example 4, 2-(2,4-Dichlorophenyl)-1-(imidazol-2-yl)-3-(1H-1,2,4-triazol-1-yl)propan-2-ol] | 1.2 mg/kg |  |
| Cn1ccnc1CC(O)(Cn1cncn1)c1ccc(Cl)cc1Cl (stereo not drawn) [Example 5, 2-(2,4-Dichlorophenyl)-1-(1-methylimidazol-2-yl)-3-(1H-1,2,4-triazol-1-yl)propan-2-ol dimesylate] | 1 mg/kg |  |
